According to patent US20240425475A1, “COMPOUND BASED ON QUINAZOLINE-SUBSTITUTED GLUTARIMIDE SKELETON AND USE THEREOF” (GLUETACS THERAPEUTICS (SHANGHAI) CO., LTD., priority 2022, published 2024):

Biological target: human Cereblon WT GST-tagged protein (Homo sapiens (Human), UniProt Q96SW2)
Experiment: CRBN-binding affinity, CEREBLON BINDING kit (HTRF)
Conditions: HTRF inhibitory activity, binding to CRBN
Excerpt: Determination of CRBN-Binding Affinity of Compounds
The CEREBLON BINDING kits (specification: 10,000 tests; product number: Catalog #64BDCRBNPEH; CISBIO company) was used to determine the CRBN binding ability of the compounds to be tested through a HTRF method (homogeneous time-resolved fluorescence). The specific methods are as follows: • 1. According to the instructions of the CEREBLON BINDING kits, the compounds to be tested of the present invention and lenalidomide were serially diluted using diluent #9 (1×) solution to obtain a final concentration of 2 μM for both the tested compounds and lenalidomide solution. • 2.2.5 μL of the above 2 μM of the tested compounds and lenalidomide solution, as well as the same volume of diluent #9 (1×) solution (solvent control group, Std0) were taken and added to each well of a 96-well plate, respectively. Then, 2.5 μL of (human Cereblon WT GST-tagged protein) solution was added to each well. Finally, 5 μL of the uniformly mixed thalidomide-Red reagent and GST Eu antibody working solution were added to each of the above wells. The final concentration of the tested compounds and lenalidomide in each well is 0.5 μM. • 3. The blank control wells were sequentially added with 2.5 μL of diluent #9 (1×) solution, 2.5 μL of PROTAC binding buffer, and 5 μL of uniformly mixed thalidomide-Red reagent and GST Eu antibody working solution. • 4. After sealing and incubating the solutions in the above wells at room temperature for 3 hours, the absorbance values at emission wavelengths of 620 nm and 665 nm were detected by the HTRF method using a Spark microplate reader (V3.1 SP1).
The corresponding CRBN binding inhibition rate was calculated using the following method: […]
Note: OD 665 nmcompound is the absorbance value of each well of the compounds to be tested of the present disclosure at an emission wavelength of 665 nm.
OD 620 nmcompound is the absorbance value of each well of the compounds to be tested of the present disclosure at an emission wavelength of 620 nm.
OD 665 nmcontrol is the absorbance value of the blank control well at an emission wavelength of 665 nm.
OD 620 nmcontrol is the absorbance value of the blank control well at an emission wavelength of 620 nm.
OD 665 nmstd0 is the absorbance value of the solvent control well at an emission wavelength of 665 nm.
OD 620 nmstd0 is the absorbance value of the solvent control well at an emission wavelength of 620 nm.

Chain of human Cereblon WT GST-tagged protein (Q96SW2 whole entry): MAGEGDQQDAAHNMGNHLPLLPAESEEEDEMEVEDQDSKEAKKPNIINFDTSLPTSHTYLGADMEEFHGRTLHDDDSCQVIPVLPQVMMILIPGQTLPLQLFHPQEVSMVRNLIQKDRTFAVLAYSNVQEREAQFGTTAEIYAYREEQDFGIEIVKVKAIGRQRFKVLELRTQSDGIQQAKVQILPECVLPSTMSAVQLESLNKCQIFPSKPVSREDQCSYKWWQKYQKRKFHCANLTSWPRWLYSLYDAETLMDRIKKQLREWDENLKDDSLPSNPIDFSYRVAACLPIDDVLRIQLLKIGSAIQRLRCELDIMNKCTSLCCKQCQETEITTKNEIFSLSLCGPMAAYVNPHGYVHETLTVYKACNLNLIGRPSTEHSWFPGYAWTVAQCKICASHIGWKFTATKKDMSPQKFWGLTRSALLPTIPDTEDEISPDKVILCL

| Compound | IC50 [nM] |
| --- | --- |
| Cc1nc2cccc(NCCOCCNC34CC5CC(CC(C5)C3)C4)c2c(=O)n1C1CCC(=O)NC1=O (centres unmarked) [GT-02234, 3-(5-((2-(2-(((1s,3s)-adamantan-1-yl)amino)ethoxy)ethyl)amino)-2-methyl-4-oxoquinazolin-3(4H)-yl)piperidine-2,6-dione] | 3340 |
| Cc1nc2cccc(NCCCNC3C4CC5CC(C4)CC3C5)c2c(=O)n1C1CCC(=O)NC1=O (centres unmarked) [GT-02326, 3-(5-((3-(((1r,3r,5r,7r)-adamantan-2-yl)amino)propyl)amino)-2-methyl-4-oxoquinazolin-3(4H)-yl)piperidine-2,6-dione] | 700 |
| Cc1nc2cccc(NCCOCCNC34CC5CC(CC3C5)C4)c2c(=O)n1C1CCC(=O)NC1=O (centres unmarked) [GT-02389, 3-(5-((2-(2-(((3as,6as)-hexahydro-2,5-methanopentalen-3a(1H)-yl)amino)ethoxy)ethyl)amino)-2-methyl-4-oxoquinazolin-3(4H)-yl)piperidine-2,6-dione] | 780 |
| Cc1nc2cccc(NCCCCNC3C4CC5CC(C4)CC3C5)c2c(=O)n1C1CCC(=O)NC1=O (centres unmarked) [GT-02392, 3-(5-((4-(((1r,3r,5r,7r)-adamantan-2-yl)amino)butyl)amino)-2-methyl-4-oxoquinazolin-3(4H)-yl)piperidine-2,6-dione] | 990 |
| Cc1nc2cccc(NCCOCCOCCNC34CC5CC(CC3C5)C4)c2c(=O)n1C1CCC(=O)NC1=O (centres unmarked) [GT-02497, 3-(5-((2-(2-(2-(((3as,6as)-hexahydro-2,5-methanopentalen-3a(1H)-yl)amino)ethoxy)ethoxy)ethyl)amino)-2-methyl-4-oxoquinazolin-3(4H)-yl)piperidine-2,6-dione] | 660 |
| Cc1nc2cccc(NCCCCCCCN3CCCN(C)CC3)c2c(=O)n1C1CCC(=O)NC1=O (centres unmarked) [GT-02502, 3-(2-methyl-5-((7-(4-methyl-1,4-diazepan-1-yl)heptyl)amino)-4-oxoquinazolin-3(4H)-yl)piperidine-2,6-dione] | 1800 |
| Cc1nc2cccc(NC34CC5CC(CC(C5)C3)C4)c2c(=O)n1C1CCC(=O)NC1=O (centres unmarked) [GT-02601, 3-(5-(((1s,3s)-adamantan-1-yl)amino)-2-methyl-4-oxoquinazolin-3(4H)-yl)piperidine-2,6-dione] | 2820 |
| Cc1nc2cccc(NCCCCCCCN3CC4CC(C3)O4)c2c(=O)n1C1CCC(=O)NC1=O (centres unmarked) [GT-02621, 3-(5-((7-(6-oxa-3-azabicyclo[3.1.1]heptan-3-yl)heptyl)amino)-2-methyl-4-oxoquinazolin-3(4H)-yl)piperidine-2,6-dione] | 1040 |
| Cc1nc2cccc(NCCCCCCCN3CCC(N4CCOCC4)CC3)c2c(=O)n1C1CCC(=O)NC1=O (centres unmarked) [GT-02622, 3-(2-methyl-5-((7-(4-morpholinopiperidin-1-yl)heptyl)amino)-4-oxoquinazolin-3(4H)-yl)piperidine-2,6-dione] | 2480 |
| Cc1nc2cccc(NCCCCCCCN3CCN(C4COC4)CC3)c2c(=O)n1C1CCC(=O)NC1=O (centres unmarked) [GT-02623, 3-(2-methyl-5-((7-(4-(oxetan-3-yl)piperazin-1-yl)heptyl)amino)-4-oxoquinazolin-3(4H)-yl)piperidine-2,6-dione] | 2520 |
| Cc1nc2cccc(C#CCCCCCCN3CCN(C)CC3)c2c(=O)n1C1CCC(=O)NC1=O (centres unmarked) [GT-02645, 3-(2-methyl-5-(8-(4-methylpiperazin-1-yl)oct-1-yn-1-yl)-4-oxoquinazolin-3(4H)-yl)piperidine-2,6-dione] | 2800 |
| Cc1nc2cccc(CCCCCNC34CC5CC(CC(C5)C3)C4)c2c(=O)n1C1CCC(=O)NC1=O (centres unmarked) [GT-02759, 3-(5-(5-(((3s,5s,7s)-adamantan-1-yl)amino)pentyl)-2-methyl-4-oxoquinazolin-3(4H)-yl)piperidine-2,6-dione] | 50 |
| Cc1nc2cccc(CCCCCCCCN3CC4CC(C3)O4)c2c(=O)n1C1CCC(=O)NC1=O (centres unmarked) [GT-02800, 3-(5-(8-(6-oxa-3-azabicyclo[3.1.1]heptan-3-yl)octyl)-2-methyl-4-oxoquinazolin-3(4H)-yl)piperidine-2,6-dione] | 3400 |

Second part, the compound after the results:

| IC50 [nM] | Compound |
| --- | --- |
| 2470 | Cc1nc2cccc(CCCCCCCCN3CCC(N4CCN(C)CC4)CC3)c2c(=O)n1C1CCC(=O)NC1=O (centres unmarked) [GT-02799, 3-(2-methyl-5-(8-(4-(4-methylpiperazin-1-yl)piperidin-1-yl)octyl)-4-oxoquinazolin-3(4H)-yl)piperidine-2,6-dione] |
| 2240 | Cc1nc2cccc(CN3CCN(CC45CC6CC(CC(C6)C4)C5)CC3)c2c(=O)n1C1CCC(=O)NC1=O (centres unmarked) [GT-03227, 3-(5-((4-(((3r,5r,7r)-adamantan-1-yl)methyl)piperazin-1-yl)methyl)-2-methyl-4-oxoquinazolin-3(4H)-yl)piperidine-2,6-dione] |
| 1840 | Cc1nc2cccc(CN3CCNCC3)c2c(=O)n1C1CCC(=O)NC1=O (centres unmarked) [GT-03228, 3-(2-methyl-4-oxo-5-(piperazin-1-ylmethyl)quinazolin-3(4H)-yl)piperidine-2,6-dione] |
| 2750 | Cc1nc2cccc(CN3CCN(Cc4ccc(C56CC7CC(CC(C7)C5)C6)cc4)CC3)c2c(=O)n1C1CCC(=O)NC1=O (centres unmarked) [GT-03230, 3-(5-((4-(4-((3r,5r,7r)-adamantan-1-yl)benzyl)piperazin-1-yl)methyl)-2-methyl-4-oxoquinazolin-3(4H)-yl)piperidine-2,6-dione] |
| 2240 | Cc1nc2cccc(C#CCN3CCN(Cc4ccc(C56CC7CC(CC(C7)C5)C6)cc4)CC3)c2c(=O)n1C1CCC(=O)NC1=O (centres unmarked) [GT-03233, 3-(5-(3-(4-(4-((3r,5r,7r)-adamantan-1-yl)benzyl)piperazin-1-yl)prop-1-yn-1-yl)-2-methyl-4-oxoquinazolin-3(4H)-yl)piperidine-2,6-dione] |
| 2150 | Cc1nc2cccc(SCCN3CCN(CC45CC6CC(CC(C6)C4)C5)CC3)c2c(=O)n1C1CCC(=O)NC1=O (centres unmarked) [GT-03259, 3-(5-((2-(4-(((3r,5r,7r)-adamantan-1-yl)methyl)piperazin-1-yl)ethyl)thio)-2-methyl-4-oxoquinazolin-3(4H)-yl)piperidine-2,6-dione] |
| 1000 | Cc1nc2cccc(CN3CCN(CCC45CC6CC(CC(C6)C4)C5)CC3)c2c(=O)n1C1CCC(=O)NC1=O (centres unmarked) [GT-03261, 3-(5-((4-(2-((3r,5r,7r)-adamantan-1-yl)ethyl)piperazin-1-yl)methyl)-2-methyl-4-oxoquinazolin-3(4H)-yl)piperidine-2,6-dione] |
| 1000 | Cc1nc2cccc(C#CCN3CCN(CCC45CC6CC(CC(C6)C4)C5)CC3)c2c(=O)n1C1CCC(=O)NC1=O (centres unmarked) [GT-03262, 3-(5-(3-(4-(2-((1s,3s)-adamantan-1-yl)ethyl)piperazin-1-yl)prop-1-yn-1-yl)-2-methyl-4-oxoquinazolin-3(4H)-yl)piperidine-2,6-dione] |
| 1980 | Cc1nc2cccc(SCCN3CCN(Cc4ccc(C56CC7CC(CC(C7)C5)C6)cc4)CC3)c2c(=O)n1C1CCC(=O)NC1=O (centres unmarked) [GT-03315, 3-(5-((2-(4-(4-((1s,3s)-adamantan-1-yl)benzyl)piperazin-1-yl)ethyl)thio)-2-methyl-4-oxoquinazolin-3(4H)-yl)piperidine-2,6-dione] |
| 3580 | Cc1nc2cccc(CN3CCN(C(=O)C45CC6CC(CC(C6)C4)C5)CC3)c2c(=O)n1C1CCC(=O)NC1=O (centres unmarked) [GT-03317, 3-(5-((4-((1s,3s)-adamantane-1-carbonyl)piperazin-1-yl)methyl)-2-methyl-4-oxoquinazolin-3(4H)-yl)piperidine-2,6-dione] |
